Test results as given in article PMC8878463, “Biological Activity and Stability of Aeruginosamides from Cyanobacteria” (Marine Drugs, 2022).
Each block holds one compound with its values, some of them ahead of it.

Assays:
CYP2C9 = CYP2C9 (Homo sapiens, UniProt P11712); assay: Vivid CYP450 screening kit, CYP2C9 Blue; settings: for reduction of CYP2C9 activity: 60 µM, 60 min incubation
Protocol: (§2) The following commercially available Vivid® CYP450 Screening Kits were performed according to the instruction supplied by the manufacturer (Thermo Fisher Scientific, Waltham, MA, USA): Vivid® CYP2C9 Blue (cat. no. P2861), Vivid® CYP2D6 Blue (cat. no. P2972) and Vivid® CYP3A4 Blue (cat. no. P2857). […] After adjustment to room temperature, the Vivid substrate was dissolved in anhydrous acetonitrile (10 µM), and the fluorescence standard was dissolved in DMSO (100 µM). The test compounds and inhibitors were diluted with the Vivid® CYP450 reaction buffer. […] In the subsequent steps, 5 µL solutions of test compounds, inhibitors and solvent were added to the wells. Then, 5 µL of Master Pre-Mix (mixture of Reagent, Regeneration System and the Reaction Buffer) was dispensed to each well. After 10 min incubation at room temperature, the reaction was started by the addition of 5 µL of a mixture composed of Vivid® Substrate and NADP^+. Tests were performed in endpoint mode using 384-well plates. […] The test was performed with three replicates at each concentration.

[1] = tested on: human breast adenocarcinoma cell line T47D; assay: MTT cytotoxicity assay; format: cell-based; settings: 40 µM, 24 h
Protocol: MTT (3-(4,5-dimethylthiazol-2-yl)-2,5-diphenyltetrazolium-bromide) assay was performed according to Felczykowska et al.. Briefly, cytotoxicity assessment was conducted against human breast adenocarcinoma cell line T47D obtained from the European Collection of Authenticated Cell Cultures (ECACC) through Merck KGaA (Darmstadt, Germany). Cells were cultured in 96-well plates using RPMI1640 medium (Carl Roth GmbH, Karlsruhe, Germany) supplemented with a fetal bovine serum (10% v/v; Sigma-Aldrich by Merck KGaA, Darmstadt, Germany) and penicillin-streptomycin solution (1% v/v, stock solution 50 u and 0.05 mg mL^−1, respectively; Merck KGaA, Darmstadt, Germany) at 1 × 10^4 cells per well and incubated for 24 h. After the addition of the tested compounds (40, 80, 160 and 320 µM) dissolved in 1% DMSO, samples were incubated for another 24 h. Then, MTT reagent was added (25 µL at 4 mg mL^−1 in PBS; Merck KGaA; Darmstadt, Germany) and the samples were incubated for 4 h. Lastly, formazan crystals were dissolved in 100% DMSO and absorbance was measured using a microplate reader (Spectramax i3, Molecular Devices, LLC San Jose, CA, USA). Cell viability was calculated as the ratio of the mean absorbance value measured in two independent assays, for the three replicates containing the samples, to the mean absorbance of the three replicates of the corresponding solvent control and expressed as a percentage.

Huh7 cells = assay: CellTiter-Glo cell viability assay; format: cell-based, human; settings: 24 h; for effect on Huh7 cell viability: 10 nM to 100 µM; for mean luciferase expression (relative luminescence), cell viability: normalized to untreated cells
Protocol: (§1) To determine cell viability and ROS level, Huh7 cells were seeded at 10,000 cells per well in white 96-well plates. After overnight incubation, the medium was removed and replaced with 100 μL of RPMI1640 supplemented with increasing concentrations of AEGs ranging from 10 nM to 100 μM (cell viability) or ranging from 1 µM to 100 μM (ROS), with three replicates at each concentration. After incubation for 24 h, cells viability was examined using a Cell Titer-Glo Luminescent Cell Viability Assay (Promega, Madison, WI, USA) and ROS was measured using a ROS-Glo H2O2 Assay (Promega, Madison, WI, USA).

[2] = In vitro S9 stability assay (LC-MS/MS); format: in vitro ADME, human; settings: for change of concentration in active S9 fraction / change of concentration in heat-denatured S9 fraction: up to 60 min; for change of concentration in heat-denatured S9 fraction: heat-denatured (deactivated) S9 fraction
Protocol: Human S9 liver fraction (catalogue no. HMS9PL, lot no. PL045-A) (protein content 20 mg mL^−1), containing a mixture of microsomal and cytosol enzymes, was used (Thermo Fisher Scientific, Waltham, MA USA) together with the following activating cofactors: NADPH (Alfa Aesar, Wart Hill, MA, USA), UDPGA (Merck KGaA; Darmstadt, Germany) and GSH (Merck, Darmstadt Germany). All cofactors (20 mM) and the analysed AEGs (3 µM) were prepared in 1% DMSO, the reaction was performed in a buffer (200 mM Tris (Merck KGaA, Darmstadt, Germany), 2 mM MgCl2 and 1M NaOH (Avantor Performance Materials Poland S.A., Gliwice, Poland); pH 7.4) 7-etoxycoumarine (7-EC; 3 µM in 20% DMSO) (Merck KGaA, Darmstadt, Germany) was used as a positive control. Tubes with 236 µL of buffer and 24 µL of S9 fraction were prepared in duplicates. Half of the samples was kept on ice, while the other half was deactivated by heating at 80 °C for 10 min and then cooled to room temperature. Cofactors were mixed (1:1:1) and 120 µL of the mixture, together with 20 µL of 7-EC were added to all samples. The aliquots (25 µL) of the samples were withdrawn at 0, 15, 30, 45, and 60 min, and 50 µL of an ice-cold ACN:MeOH (50:50) was added to stop the reaction. The samples were centrifuged (10,000× g, 4 °C, 10 min) and the supernatants were analysed by LC-MS/MS. The test was repeated twice. The elimination half-life was calculated as in Wen and Walle.
LC-MS/MS analyses were performed using an Agilent 1200 (Agilent Technologies, Waldboronn, Germany) chromatographic system coupled with a hybrid triple quadrupole/linear ion trap mass spectrometer (QTRAP5500, Applied Biosystems, Sciex, Concorde, ON, Canada) as a detector. AEGs were separated in a Zorbax Eclipse XDB-C18 column (4.61 mm × 150 mm; 5 µm) (Agilent Technologies, Santa Clara, CA, USA). The composition of the mobile phase was the same as in preparative chromatography. For analysis of the collected chromatographic fractions, the gradient changed from 15% B to 99% B over 20 min (flow rate 0.6 mL min^−1). The Turbo IonSource operated in positive ionisation mode at capillary voltage of 5.5 kV and source temperature of 550 °C. Cone gas pressure and desolvation gas pressure were 60 psi, declustering potential was 80 V, and collision energy was 60 ± 20 eV. Q3-information-dependent analysis (IDA) and enhanced product ion (EPI) modes were used. The IDA threshold was set at 500,000 cps, and the m/z range was 400–1000. The scan rate was 2000 amu s^−1, and the linear ion trap fill time 50 ms. For analysis of AEGs and 7-EC, the chromatographic gradient changed from 15% B to 25% B in 5 min, then to 99% B in the next 5 min (0.6 mL min^−1). MS operated in multiple reaction monitoring mode at collision energy CE 50 V and with the following transitions: 191 → 163, 119, 107 (q), 91 (for 7-EC); 561 → 222, 186, 86 (q) (for AEG A); 626 → 296, 136 (q), 70 (for AEG 625) and 658 → 296, 199 (q), 120 (for AEG 657). To determine the changes in AEGs concentrations, the peak areas of the most intensive ions (q) were measured.

CYP3A4 = target: T1, CYP3A4 (Homo sapiens, UniProt P08684); assay: Vivid CYP450 screening kit, CYP3A4 Blue; format: biochemical; settings: for effect on CYP3A4 activity: up to 60 µM
T1 construct: purchased Thermo Fisher Scientific P2857; host or cells: baculovirus expression system (insect cell microsomes)
Protocol: The following commercially available Vivid® CYP450 Screening Kits were performed according to the instruction supplied by the manufacturer (Thermo Fisher Scientific, Waltham, MA, USA): Vivid® CYP2C9 Blue (cat. no. P2861), Vivid® CYP2D6 Blue (cat. no. P2972) and Vivid® CYP3A4 Blue (cat. no. P2857). The CYP450 BACULOSOMES Plus Reagent (with the recombinant human cytochrome P450 and human cytochrome 450 reductases), Vivid Regeneration System (333 mM glucose-6-phosphate and 30 U mL^−1 glucose-6-phosphate dehydrogenase in 100 mM K3PO4, pH 8.0), and Vivid NADP^+ (10 mM NADP^+ in 100 mM K3PO4, pH 8.0) were thawed at room temperature and kept on ice until use. After adjustment to room temperature, the Vivid substrate was dissolved in anhydrous acetonitrile (10 µM), and the fluorescence standard was dissolved in DMSO (100 µM). The test compounds and inhibitors were diluted with the Vivid® CYP450 reaction buffer. […] In the subsequent steps, 5 µL solutions of test compounds, inhibitors and solvent were added to the wells. Then, 5 µL of Master Pre-Mix (mixture of Reagent, Regeneration System and the Reaction Buffer) was dispensed to each well. After 10 min incubation at room temperature, the reaction was started by the addition of 5 µL of a mixture composed of Vivid® Substrate and NADP^+. Tests were performed in endpoint mode using 384-well plates. Excitation wavelength was 415 nm and emission was measured at 460 nm, at the start of the test and after 60 min. The test was performed with three replicates at each concentration.

CYP2D6 = CYP2D6 (Homo sapiens, UniProt P10635); assay: Vivid CYP450 screening kit, CYP2D6 Blue
Protocol: as §2

[3] = tested on: A2780 human ovarian tumour cells; set-up: method as in PMID 34237867; settings: previous study; read-out: IC50 cytotoxic activity, A2780; cited from earlier work
[4] = tested on: K562 human leukaemia cells; set-up: method as in PMID 34237867; settings: previous study; read-out: IC50 cytotoxic activity, K562; cited from earlier work
[5] = tested on: MIR92b-3p in Huh7-pmirGLO-92b cells; assay: Dual-luciferase reporter assay for inhibitors of MIR92b-3p function; format: cell-based, human; settings: 100 µM, 24 h
Protocol: In this study, the reporter assays for small-molecule inhibitors of the MIR92b-3p function, previously designed to screen Nostoc peptides, were used. The screen employs a Huh7 human hepatoma cell line (Cell Lines Service GmbH, CLS; Eppelheim, Germany) stably transfected with a pmirGLO vector containing dual-luciferase reporters. Briefly, for the chemical screening of AEGs, Huh7-pmirGLO-MIR92b-3p cells were seeded at 10,000 cells per well in white, 96-well plates (Thermo Fisher Scientific, Waltham, MA, USA). After overnight incubation, the medium was removed and replaced with 100 μL of RPMI1640 (Merck, KGaA, Darmstadt, Germany), supplemented with increasing concentrations of AEGs, ranging from 10 nM to 100 μM, with three replicates at each concentration. Cells were incubated for 24 h and then analysed with a dual-luciferase Reporter Assay Kit (Promega, Madison, WI, USA). Relative luciferase activity was calculated using the ratio of firefly (F) and Renilla (R) luciferase activity (F/R).

[6] = tested on: ROS (reactive oxygen species) levels in Huh7 cells; assay: ROS-Glo H2O2 assay; format: cell-based, human; settings: 1 µM to 100 µM, 24 h, concentration-dependent
Protocol: as §1

[7] = human, recombinant CYP2D6 (CYP450 BACULOSOMES Plus Reagent), probe Vivid CYP2D6 Blue substrate
[8] = active S9 fraction, 60 min, 3 µM

T1 sequence (P08684 2-503 limits assumed): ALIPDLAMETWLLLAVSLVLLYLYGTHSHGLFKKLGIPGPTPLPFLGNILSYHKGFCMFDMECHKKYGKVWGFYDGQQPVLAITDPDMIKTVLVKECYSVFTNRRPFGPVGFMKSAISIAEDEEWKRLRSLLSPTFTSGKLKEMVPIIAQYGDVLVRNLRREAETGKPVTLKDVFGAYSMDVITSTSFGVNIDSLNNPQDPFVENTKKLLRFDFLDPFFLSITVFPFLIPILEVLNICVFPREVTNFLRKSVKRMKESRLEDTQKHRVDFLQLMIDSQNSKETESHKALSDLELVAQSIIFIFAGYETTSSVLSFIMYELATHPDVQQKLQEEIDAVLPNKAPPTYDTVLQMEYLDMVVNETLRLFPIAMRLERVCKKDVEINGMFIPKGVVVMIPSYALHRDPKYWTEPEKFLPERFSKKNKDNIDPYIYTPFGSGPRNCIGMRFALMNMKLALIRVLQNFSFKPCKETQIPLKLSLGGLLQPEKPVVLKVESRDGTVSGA
Sequence of CYP2C9 (P11712 whole entry): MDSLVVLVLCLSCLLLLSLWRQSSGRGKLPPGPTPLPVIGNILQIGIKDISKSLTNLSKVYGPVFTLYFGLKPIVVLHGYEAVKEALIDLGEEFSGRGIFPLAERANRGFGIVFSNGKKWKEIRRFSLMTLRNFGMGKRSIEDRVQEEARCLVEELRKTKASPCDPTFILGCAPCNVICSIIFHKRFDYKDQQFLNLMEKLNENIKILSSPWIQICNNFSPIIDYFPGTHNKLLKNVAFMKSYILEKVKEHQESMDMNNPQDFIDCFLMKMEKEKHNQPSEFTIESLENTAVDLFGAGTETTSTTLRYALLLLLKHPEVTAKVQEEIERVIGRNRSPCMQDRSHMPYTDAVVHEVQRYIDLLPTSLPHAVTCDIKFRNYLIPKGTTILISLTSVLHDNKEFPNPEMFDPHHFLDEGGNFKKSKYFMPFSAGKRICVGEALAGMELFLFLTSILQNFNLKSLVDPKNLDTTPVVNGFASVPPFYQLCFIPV
Sequence of CYP2D6 (P10635 whole entry): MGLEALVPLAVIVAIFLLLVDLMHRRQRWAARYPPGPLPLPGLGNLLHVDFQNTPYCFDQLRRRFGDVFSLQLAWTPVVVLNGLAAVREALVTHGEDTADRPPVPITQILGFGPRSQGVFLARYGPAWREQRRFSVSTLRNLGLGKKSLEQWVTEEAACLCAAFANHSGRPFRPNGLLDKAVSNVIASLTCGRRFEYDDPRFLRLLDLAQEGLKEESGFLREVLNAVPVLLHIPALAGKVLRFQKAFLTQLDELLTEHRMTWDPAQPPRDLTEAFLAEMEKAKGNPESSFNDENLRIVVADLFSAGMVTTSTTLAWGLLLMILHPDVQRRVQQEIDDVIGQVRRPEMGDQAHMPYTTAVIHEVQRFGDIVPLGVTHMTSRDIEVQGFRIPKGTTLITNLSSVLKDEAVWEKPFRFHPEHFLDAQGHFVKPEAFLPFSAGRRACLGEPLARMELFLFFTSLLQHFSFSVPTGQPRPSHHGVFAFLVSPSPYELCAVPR

Compound: Nc1ccc(S(=O)(=O)Nc2ccnn2-c2ccccc2)cc1 [sulfaphenazole, reference compound]
reduction of CYP2C9 activity (CYP2C9): 44.9%
IC50 at 60 min (CYP2C9; human): 6.1 µM

Compound: CCOc1ccc2ccc(=O)oc2c1 [7-EC, 7-etoxycoumarin, reference compound]
elimination half-life t1/2 ([2]; active S9 fraction with NADPH, UDPGA, GSH): 38.7 min
concentration remaining, % of initial value [2, 8]: 28.6%
change of concentration in heat-denatured S9 fraction [2]: no changes were observed

Compound: C=C[C@H]1C[N@@]2CC[C@H]1C[C@@H]2[C@@H](O)c1ccnc2ccc(OC)cc12 [Quinidine, reference compound]
inhibition at 60 min, 60 µM (CYP2D6; human): 96.2%

Compound: CCC(C)C(C(=O)NC(C(=O)N1CCCC1c1nc(C(=O)O)cs1)C(C)C)N(CC=C(C)C)CC=C(C)C (stereo not drawn) [AEG A]
inhibition of T47D viability [1]: no effects were observed
effect on Huh7 cell viability (Huh7 cells): did not affect either of the two cancer cell lines
concentration remaining, % of initial value ([2]; active S9 fraction, 15 min, 3 µM): 2.9%
concentration remaining, % of initial value [2, 8]: 0.4%
concentration remaining, % of initial value ([2]; heat-denatured S9 fraction, 15 min): 56.0%
concentration remaining, % of initial value ([2]; heat-denatured S9 fraction, 60 min): 46.0%
half-life at 3 µM ([2]; human, liver S9 fraction (active), pH 7.4, active S9 fraction with NADPH, UDPGA, GSH, read-out: elimination half-life t1/2): 2.48 min
IC50 (CYP3A4; 60 min incubation): 5.7 µM
effect on CYP3A4 activity (CYP3A4): active against CYP3A4, but only at the two highest concentrations
IC50 [3]: 2.9 µM
IC50 [4]: 5.2 µM
reduction of CYP2C9 activity (CYP2C9): 28.7%
remaining CYP2D6 activity (reduced to) (CYP2D6; 6 µM): 78.4%
remaining CYP2D6 activity (reduced to) (CYP2D6; 60 µM): 60.4%
IC50 at 60 min (CYP2D6; [7]): 8.6 µM

The next lines start with results.

CYP3A4 activity lower than in the control (CYP3A4; 60 µM): approx. 18%
reduction of CYP2C9 activity (CYP2C9): 40.7%
inhibition at 60 min, 60 µM (CYP2D6; [7]): 33.2%
Compound: C=CC(C)(C)NC(Cc1ccccc1)C(=O)NC(Cc1ccccc1)C(=O)N1CCCC1C(=O)N1CCCC1c1nc(C(=O)O)cs1 (stereo not drawn) [AEG657]
inhibition of T47D viability [1]: 63%
effect on Huh7 cell viability (Huh7 cells): lack of significant effects
change of concentration in active S9 fraction ([2]; active S9 fraction): neither changes in the active nor in the deactivated fraction were detected
change of concentration in heat-denatured S9 fraction [2]: neither changes in the active nor in the deactivated fraction were detected

effect on CYP3A4 activity (CYP3A4): No significant loss of CYP3A4 activity
reduction of CYP2C9 activity (CYP2C9): 43.9%
effect on CYP2D6 activity (CYP2D6; up to 60 µM): did not induce any effects
Compound: C=CC(C)(C)NC(Cc1ccc(O)cc1)C(=O)NC(C(=O)N1CCCC1C(=O)N1CCCC1c1nc(C(=O)O)cs1)C(C)C (stereo not drawn) [AEG625]
inhibition of T47D viability [1]: 48%
luciferase signal intensity (MIR92b-3p reporter) [5]: slight increase in signal intensity
effect on Huh7 cell viability (Huh7 cells): no apparent effect
mean luciferase expression (relative luminescence), cell viability (Huh7 cells; 50 µM): 0.73 (SD = 0.47)
mean luciferase expression (relative luminescence), cell viability (Huh7 cells; 100 µM): 0.70 (SD = 0.27)
change of ROS levels in Huh7 cells [6]: twofold
change of concentration in active S9 fraction ([2]; active S9 fraction): neither changes in the active nor in the deactivated fraction were detected
change of concentration in heat-denatured S9 fraction [2]: neither changes in the active nor in the deactivated fraction were detected
